Results taken from patent publication EP4610269A1, “UROKINASE PLASMINOGEN ACTIVATOR SURFACE RECEPTOR (UPAR) LIGANDS FOR DIAGNOSTIC OR THERAPEUTIC USE” (3B Pharmaceuticals GmbH, priority 2024, dated 2025).
Like-named read-outs stand apart in the source and are kept apart here. Where a SMILES comes first, the peptide text is derived from it. Bridges are numbered along the chain shown (N, C = ends). Side-chain parts run from the residue outwards. [ ]: non-standard residue; d: D form. The star is where a group is joined. DOTA(Lu) = O=C1CN2CCN3CCN(CC(=O)*)CCN(CC2)CC(=O)[O][Lu]([O]1)[O]C(=O)C3; DOTA = O=C(O)CN1CCN(CC(=O)O)CCN(CC(=O)*)CCN(CC(=O)O)CC1; Oic = O=C(O)[C@@H]1C[C@@H]2CCCC[C@@H]2N1; Pro(cis-4-F) = O=C(O)[C@@H]1C[C@H](F)CN1; Dopa = N[C@@H](Cc1ccc(O)c(O)c1)C(=O)O; Bta = N[C@@H](Cc1csc2ccccc12)C(=O)O; Hyp = O=C(O)[C@@H]1C[C@@H](O)CN1; tBuAla = CC(C)(C)C[C@H](N)C(=O)O; Pentanoyl(4-Me) = CC(C)CCC(=O)*; Cit = NC(=O)NCCC[C@H](N)C(=O)O; NMeL = CN[C@@H](CC(C)C)C(=O)O; Butoxycarbonyl = CCCCOC(=O)*; NMeV = CN[C@H](C(=O)O)C(C)C; hCys = N[C@@H](CCS)C(=O)O; Ac6c = NC1(C(=O)O)CCCCC1; dNMeA = CN[C@H](C)C(=O)O; Nva = CCC[C@H](N)C(=O)O; Pentanoyl = CCCCC(=O)*

Experiments:
[1] = biological target: T1, uPAR-expressing HEC-265 human endometrial adenocarcinoma cells (Homo sapiens, UniProt Q03405); test: Competitive FACS binding assay; conditions: pIC50 category of FACS binding
T1 construct: Cell surface uPAR-expressing HEC-265 human endometrial adenocarcinoma cells; host or cells: HEC-265
Outline: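 HEC-265 cells incubated 1 h at 4 °C with 10 nM biotinylated uPAR peptide tracer plus increasing test compound, then stained with APC-streptavidin on ice. Median APC fluorescence by flow cytometry; 4PL fit gives pIC50.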

human uPAR (uPAR-Fc) = biological target: T2, human uPAR (uPAR-Fc) (Homo sapiens, UniProt Q03405); test: Surface plasmon resonance (SPR) assay, single cycle kinetics; format: binding; conditions: pKD category for uPAR SPR activity assay, uPAR-Fc on Protein A-Chip, 25°C; for Kd: read-out: pKD CAT (converted)
T2 construct: comprising amino acids Leu23-Arg303 according to UniProt entry Q03405.1; purchased R&D Systems 10378-UK-100
Outline: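 uPAR-Fc (Leu23-Arg303 extracellular domains, human IgG1 Fc) captured on Protein A chip to ~2000 RU; single-cycle kinetics at 25°C in HEPES running buffer pH 7.4 with 0.1% DMSO. KD from double-referenced sensorgrams fitted to 1:1 Langmuir model, reported as pKD.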

T2 sequence (Q03405 23-303): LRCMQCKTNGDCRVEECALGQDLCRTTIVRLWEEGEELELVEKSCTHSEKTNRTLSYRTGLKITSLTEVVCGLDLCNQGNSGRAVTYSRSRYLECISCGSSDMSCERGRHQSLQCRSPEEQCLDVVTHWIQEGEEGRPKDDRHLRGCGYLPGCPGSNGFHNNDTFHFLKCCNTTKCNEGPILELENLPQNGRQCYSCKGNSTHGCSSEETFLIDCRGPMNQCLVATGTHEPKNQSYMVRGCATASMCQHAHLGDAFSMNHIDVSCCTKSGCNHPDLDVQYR
T1 sequence (Q03405 23-335): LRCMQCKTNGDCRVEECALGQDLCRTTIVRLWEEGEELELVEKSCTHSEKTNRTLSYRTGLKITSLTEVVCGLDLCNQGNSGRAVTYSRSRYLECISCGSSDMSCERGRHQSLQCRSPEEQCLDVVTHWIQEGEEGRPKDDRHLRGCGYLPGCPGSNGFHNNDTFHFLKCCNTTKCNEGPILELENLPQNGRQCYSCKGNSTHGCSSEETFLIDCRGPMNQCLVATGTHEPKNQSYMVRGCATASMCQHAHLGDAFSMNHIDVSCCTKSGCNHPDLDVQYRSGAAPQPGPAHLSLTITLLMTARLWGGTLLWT

Row | Compound | IC50 [1] | Kd (human uPAR (uPAR-Fc); single cycle kinetics) | pIC50 CAT [1] | pKD CAT (human uPAR (uPAR-Fc)) | Kd (human uPAR (uPAR-Fc))
1 | CCCCC(=O)N[C@H]1CSSC[C@@H](C(N)=O)NC(=O)[C@H](CCC)NC(=O)[C@H]([C@@H](C)CC)NC(=O)[C@@H]2C[C@@H](O)CN2C(=O)[C@@H]2CCCN2C(=O)[C@H](Cc2ccccc2)NC(=O)[C@H](Cc2ccc(O)cc2)NC(=O)[C@H](CCCCN)NC(=O)[C@H](CCCNC(=N)N)NC1=O [UPAR-448, Pent-[Cys-Arg-Lys-Tyr-Phe-Pro-Hyp-Ile-Nva-Cys]-NHz] (Pentanoyl-CRKYFP[Hyp]I[Nva]C-NH2; disulfide 1-10) | ≤ 10 nM | < 1.58 nM |  |  | 
2 | Pent-[Cys-Cit-Lys(LuDOTA)-Tyr-Phe-Pro-nma-Ile-Nva-Cys]-NH2 (Pentanoyl-C[Cit]K(DOTA(Lu))YFP[dNMeA]I[Nva]C-NH2; disulfide 1-10; not fully specified; also: Lu(III) complexed by DOTA) [UPAR-151] |  |  | A (pIC50 values ≥8.0) | A (pKD values ≥ 8.8) | 
3 | CCCCOC(=O)N[C@H]1CSSC[C@@H](C(N)=O)NC(=O)[C@H](CCC)NC(=O)[C@H]([C@@H](C)CC)NC(=O)[C@@H]2C[C@@H](O)CN2C(=O)[C@@H]2C[C@H](F)CN2C(=O)[C@H](Cc2ccccc2)NC(=O)[C@H](Cc2ccc(O)c(O)c2)NC(=O)[C@H](CCCCNC(=O)[C@@H](CC(=O)O)NC(=O)CN2CCN(CC(=O)O)CCN(CC(=O)O)CCN(CC(=O)O)CC2)NC(=O)[C@H]([C@@H](C)O)NC1=O [UPAR-459, Butoc-[Cys-Thr-Lys(DOTA-asp)-Dopa-Phe-4Cfp-Hyp-Ile-Nva-Cys]-NH2] (Butoxycarbonyl-CTK([dD-DOTA])[Dopa]F[Pro(cis-4-F)][Hyp]I[Nva]C-NH2; disulfide 1-10) | ≤ 10 nM | < 1.58 nM |  |  | 
4 | CCCCC(=O)N[C@H]1CSSC[C@@H](C(N)=O)NC(=O)[C@H](CCC)NC(=O)[C@H]([C@@H](C)CC)NC(=O)[C@@H]2C[C@@H](O)CN2C(=O)[C@H](C(C)C)N(C)C(=O)[C@H](Cc2ccccc2)NC(=O)[C@H](Cc2ccc(O)cc2)NC(=O)[C@H](CCC(N)=O)NC(=O)[C@H](CCCNC(=N)N)NC1=O [UPAR-470, Pent-[Cys-Arg-Gln-Tyr-Phe-Nmv-Hyp-Ile-Nva-Cys]-NH2] (Pentanoyl-CRQYF[NMeV][Hyp]I[Nva]C-NH2; disulfide 1-10) | ≥ 126 nM | > 100 nM |  |  | 
5 | CCCCC(=O)N[C@H]1CSSCC[C@@H](C(N)=O)NC(=O)[C@H](CCC)NC(=O)[C@H]([C@@H](C)CC)NC(=O)[C@@H]2C[C@@H](O)CN2C(=O)[C@@H]2CCCN2C(=O)[C@H](Cc2ccccc2)NC(=O)[C@H](Cc2ccc(O)cc2)NC(=O)[C@H](CCC(N)=O)NC(=O)[C@H](CCCNC(=N)N)NC1=O [UPAR-213, Pent-[Cys-Arg-Gln-Tyr-Phe-Pro-Hyp-Ile-Nva-Hcy]-NH2] (Pentanoyl-CRQYFP[Hyp]I[Nva][hCys]-NH2; disulfide 1-10) | ≤ 10 nM |  |  |  | 1.58 to 10 nM
6 | Butoc-[Cys-Cit-Lys(LuDOTA)-Tyr-Pcf-4Cfp-Hyp-Chg-Nva-Cys]-NH2 [UPAR-169] |  |  | A (pIC50 values ≥8.0) | A (pKD values ≥ 8.8) | 
7 | CCCCC(=O)N[C@H]1CSSC[C@@H](C(N)=O)NC(=O)[C@H](CCC)NC(=O)[C@H]([C@@H](C)CC)NC(=O)[C@@H]2C[C@@H](O)CN2C(=O)[C@@H]2C[C@@H]3CCCC[C@@H]3N2C(=O)[C@H](Cc2ccccc2)NC(=O)[C@H](Cc2ccc(O)cc2)NC(=O)[C@H](CCC(N)=O)NC(=O)[C@H](CCCNC(=N)N)NC1=O [UPAR-387, Pent-[Cys-Arg-Gln-Tyr-Phe-Oic-Hyp-Ile-Nva-Cys]-NH2] (Pentanoyl-CRQYF[Oic][Hyp]I[Nva]C-NH2; disulfide 1-10) | ≤ 10 nM | < 1.58 nM |  |  | 
8 | CCCCOC(=O)N[C@H]1CSSC[C@@H](C(N)=O)NC(=O)[C@H](CCC)NC(=O)[C@H]([C@@H](C)CC)NC(=O)[C@@H]2C[C@@H](O)CN2C(=O)[C@@H]2C[C@@H](O)CN2C(=O)[C@H](Cc2ccccc2)NC(=O)[C@H](Cc2ccc(O)c(O)c2)NC(=O)[C@H](CCCCNC(=O)CN2CCN(CC(=O)O)CCN(CC(=O)O)CCN(CC(=O)O)CC2)NC(=O)[C@H]([C@@H](C)O)NC1=O [UPAR-284, Butoc-[Cys-Thr-Lys(DOTA)-Dopa-Phe-Hyp-Hyp-Ile-Nva-Cys]-NH2] (Butoxycarbonyl-CTK(DOTA)[Dopa]F[Hyp][Hyp]I[Nva]C-NH2; disulfide 1-10) | ≤ 10 nM |  |  |  | < 1.58 nM
9 | CCC[C@@H]1NC(=O)[C@H]([C@@H](C)CC)NC(=O)[C@@H]2C[C@@H](O)CN2C(=O)[C@@H]2CCCN2C(=O)[C@H](Cc2ccccc2)NC(=O)[C@H](Cc2ccc(O)cc2)NC(=O)[C@H](CCC(N)=O)NC(=O)[C@H](CCCNC(=N)N)NC(=O)[C@@H](NC(=O)C2(NC(C)=O)CCCCC2)CSSC[C@@H](C(N)=O)NC1=O [UPAR-482, Ac-Egz-[Cys-Arg-Gln-Tyr-Phe-Pro-Hyp-Ile-Nva-Cys]-NH2] (Ac-[Ac6c]CRQYFP[Hyp]I[Nva]C-NH2; disulfide 2-11) | ≤ 10 nM | < 1.58 nM |  |  | 

The next lines start with the values.

Row | IC50 [1] | Kd (human uPAR (uPAR-Fc); single cycle kinetics) | pIC50 CAT [1] | pKD CAT (human uPAR (uPAR-Fc)) | Kd (human uPAR (uPAR-Fc)) | Compound
10 | ≤ 10 nM | < 1.58 nM |  |  |  | CCCCC(=O)N[C@H]1CSSC[C@@H](C(N)=O)NC(=O)[C@H](CCC)NC(=O)[C@H](CC(C)(C)C)NC(=O)[C@@H]2C[C@@H](O)CN2C(=O)[C@@H]2CCCN2C(=O)[C@H](Cc2ccccc2)NC(=O)[C@H](Cc2ccc(O)cc2)NC(=O)[C@H](CCC(N)=O)NC(=O)[C@H](CCCNC(=N)N)NC1=O [UPAR-370, Pent-[Cys-Arg-Gln-Tyr-Phe-Pro-Hyp-Npg-Nva-Cys]-NH2] (Pentanoyl-CRQYFP[Hyp][tBuAla][Nva]C-NH2; disulfide 1-10)
11 | ≤ 10 nM | < 1.58 nM |  |  |  | CC[C@H](C)[C@@H]1NC(=O)[C@@H](C)NC(=O)[C@@H]2C[C@H](F)CN2C(=O)[C@H](Cc2ccccc2)NC(=O)[C@H](Cc2ccc(O)cc2)NC(=O)[C@H](CCC(N)=O)NC(=O)[C@H](CCCNC(N)=O)NC(=O)[C@@H](NC(=O)CCC(C)C)CSSC[C@@H](C(N)=O)NC(=O)[C@H](CC(C)C)NC1=O [UPAR-354, iHex-[Cys-Cit-Gln-Tyr-Phe-4Cfp-ala-Ile-Leu-Cys]-NH2] ({Pentanoyl(4-Me)}-C[Cit]QYF[Pro(cis-4-F)][dA]ILC-NH2; disulfide 1-10)
12 | ≥ 126 nM | > 100 nM |  |  |  | CC[C@H](C)[C@@H]1NC(=O)[C@@H]2C[C@@H](O)CN2C(=O)[C@@H]2CCCN2C(=O)[C@H](Cc2ccccc2)NC(=O)[C@H](Cc2ccc(O)cc2)NC(=O)[C@H](CCC(N)=O)NC(=O)[C@H](CCCNC(N)=O)NC(=O)[C@@H](NC(=O)[C@H](CC(C)C)NC(=O)CN2CCN(CC(=O)O)CCN(CC(=O)O)CCN(CC(=O)O)CC2)CSSC[C@@H](C(N)=O)NC(=O)[C@H](CC(C)C)N(C)C1=O [UPAR-371, DOTA-Leu-[Cys-Cit-Gln-Tyr-Phe-Pro-Hyp-Ile-Nml-Cys]-NH2] ({DOTA}-LC[Cit]QYFP[Hyp]I[NMeL]C-NH2; disulfide 2-11)
13 | ≤ 10 nM |  |  |  | < 1.58 nM | CCCCC(=O)N[C@H]1CSSC[C@@H](C(N)=O)NC(=O)[C@H](CCC)NC(=O)[C@H]([C@@H](C)CC)NC(=O)[C@@H]2C[C@@H](O)CN2C(=O)[C@@H]2CCCN2C(=O)[C@H](Cc2csc3ccccc23)NC(=O)[C@H](Cc2ccc(O)cc2)NC(=O)[C@H](CCC(N)=O)NC(=O)[C@H](CCCNC(=N)N)NC1=O [UPAR-273, Pent-[Cys-Arg-Gln-Tyr-Bta-Pro-Hyp-Ile-Nva-Cys]-NH2] (Pentanoyl-CRQY[Bta]P[Hyp]I[Nva]C-NH2; disulfide 1-10)
